Data from PubChem BioAssay (NCI).
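48-hour exposure; five concentrations; linearly interpolated endpoints. At the GI50, growth is halved. The concentration for full growth arrest is given as TGI.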

What was measured:
Test in all cases: NCI anticancer screen, dose series, 48 h
HS 578T breast = test system: HS 578T breast
SK-OV-3 ovarian = test system: SK-OV-3 ovarian
SW-620 colon = test system: SW-620 colon
HCT-15 colon = test system: HCT-15 colon
COLO 205 colon = test system: COLO 205 colon
A549 NSCLC = test system: A549 NSCLC
T-47D breast = test system: T-47D breast
HT29 colon = test system: HT29 colon
NCI-H460 lung = test system: NCI-H460 lung
OVCAR-8 ovarian = test system: OVCAR-8 ovarian
HOP-62 NSCLC = test system: HOP-62 NSCLC
TK-10 renal = test system: TK-10 renal
OVCAR-3 ovarian = test system: OVCAR-3 ovarian
UACC-257 melanoma = test system: UACC-257 melanoma
MDA-MB-231 breast = test system: MDA-MB-231 breast
HOP-92 NSCLC = test system: HOP-92 NSCLC
HL-60(TB) leukemia = test system: HL-60(TB) leukemia
A498 renal = test system: A498 renal
MOLT-4 leukemia = test system: MOLT-4 leukemia
NCI-H522 lung = test system: NCI-H522 lung
SF-539 CNS = test system: SF-539 CNS
M14 melanoma = test system: M14 melanoma
SR leukemia = test system: SR leukemia
SN12C renal = test system: SN12C renal
OVCAR-5 ovarian = test system: OVCAR-5 ovarian
MCF7 breast = test system: MCF7 breast
RPMI-8226 leukemia = test system: RPMI-8226 leukemia
UACC-62 melanoma = test system: UACC-62 melanoma
K-562 leukemia = test system: K-562 leukemia
NCI-H226 lung = test system: NCI-H226 lung
NCI-H23 lung = test system: NCI-H23 lung
SNB-75 CNS = test system: SNB-75 CNS
SK-MEL-2 melanoma = test system: SK-MEL-2 melanoma
HCT-116 colon = test system: HCT-116 colon
CAKI-1 renal = test system: CAKI-1 renal
CCRF-CEM leukemia = test system: CCRF-CEM leukemia
KM12 colon = test system: KM12 colon
RXF 393 renal = test system: RXF 393 renal
ACHN renal = test system: ACHN renal
786-0 renal = test system: 786-0 renal
U251 CNS = test system: U251 CNS
SF-295 CNS = test system: SF-295 CNS
SNB-19 CNS = test system: SNB-19 CNS
SF-268 CNS = test system: SF-268 CNS
IGROV1 ovarian = test system: IGROV1 ovarian
OVCAR-4 ovarian = test system: OVCAR-4 ovarian
SK-MEL-28 melanoma = test system: SK-MEL-28 melanoma
SK-MEL-5 melanoma = test system: SK-MEL-5 melanoma
BT-549 breast = test system: BT-549 breast
HCC-2998 colon = test system: HCC-2998 colon
LOX IMVI melanoma = test system: LOX IMVI melanoma
MALME-3M melanoma = test system: MALME-3M melanoma
UO-31 renal = test system: UO-31 renal
EKVX NSCLC = test system: EKVX NSCLC
NCI/ADR-RES ovarian = test system: NCI/ADR-RES ovarian
DU-145 prostate = test system: DU-145 prostate
MDA-MB-435 = test system: MDA-MB-435

With `Nc1ccc(-c2nc3ccc4[nH]ncc4c3c3c2CCCC3)cc1F` the GI50 (HS 578T breast) was 1050 nM, the TGI (HS 578T breast) was 3910 nM and the GI50 (SK-OV-3 ovarian) was 367 nM. The TGI (SK-OV-3 ovarian) was 2770 nM, the GI50 (SW-620 colon) was 907 nM and the TGI (SW-620 colon) was 7520 nM. The GI50 (HCT-15 colon) was 691 nM, the TGI (HCT-15 colon) was 8050 nM and the GI50 (COLO 205 colon) was 1420 nM. The TGI (COLO 205 colon) was 6770 nM, the GI50 (A549 NSCLC) was 1040 nM and the TGI (A549 NSCLC) was 9540 nM. The GI50 (T-47D breast) was 1200 nM, the TGI (T-47D breast) was 7770 nM and the GI50 (HT29 colon) was 1530 nM. The TGI (HT29 colon) was 18500 nM, the GI50 (NCI-H460 lung) was 959 nM and the TGI (NCI-H460 lung) was 8510 nM. The GI50 (OVCAR-8 ovarian) was 1570 nM, the TGI (OVCAR-8 ovarian) was 21600 nM and the GI50 (HOP-62 NSCLC) was 1670 nM. The TGI (HOP-62 NSCLC) was 16900 nM, the GI50 (TK-10 renal) was 828 nM and the TGI (TK-10 renal) was 22400 nM. It also gave a GI50 (OVCAR-3 ovarian) of 1890 nM, a TGI (OVCAR-3 ovarian) of 18500 nM and a GI50 (UACC-257 melanoma) of 1920 nM. It also gave a TGI (UACC-257 melanoma) of 10700 nM, a GI50 (MDA-MB-231 breast) of 1710 nM and a TGI (MDA-MB-231 breast) of 30500 nM. It also gave a GI50 (HOP-92 NSCLC) of 1700 nM, a TGI (HOP-92 NSCLC) of 11200 nM and a GI50 (HL-60(TB) leukemia) of 1240 nM. The TGI (HL-60(TB) leukemia) was 3420 nM, the GI50 (A498 renal) was 636 nM and the TGI (A498 renal) was 3240 nM. The GI50 (MOLT-4 leukemia) was 1270 nM, the TGI (MOLT-4 leukemia) was 5820 nM and the GI50 (NCI-H522 lung) was 989 nM. For the same molecule, the TGI (NCI-H522 lung) was 6930 nM, the GI50 (SF-539 CNS) was 1380 nM and the TGI (SF-539 CNS) was 5850 nM. It also gave a GI50 (M14 melanoma) of 686 nM, a TGI (M14 melanoma) of 6920 nM and a GI50 (SR leukemia) of 1120 nM. For the same molecule, the TGI (SR leukemia) was 9100 nM, the GI50 (SN12C renal) was 1960 nM and the TGI (SN12C renal) was 13200 nM. For the same molecule, the GI50 (OVCAR-5 ovarian) was 2420 nM, the TGI (OVCAR-5 ovarian) was 23000 nM and the GI50 (MCF7 breast) was 1090 nM. The TGI (MCF7 breast) was 8920 nM, the GI50 (RPMI-8226 leukemia) was 842 nM and the TGI (RPMI-8226 leukemia) was 7370 nM. For the same molecule, the GI50 (UACC-62 melanoma) was 1190 nM, the TGI (UACC-62 melanoma) was 6710 nM and the GI50 (K-562 leukemia) was 1980 nM. The TGI (K-562 leukemia) was 22800 nM, the GI50 (NCI-H226 lung) was 686 nM and the TGI (NCI-H226 lung) was 5500 nM. For the same molecule, the GI50 (NCI-H23 lung) was 1540 nM, the TGI (NCI-H23 lung) was 7960 nM and the GI50 (SNB-75 CNS) was 1350 nM. For the same molecule, the TGI (SNB-75 CNS) was 3420 nM, the GI50 (SK-MEL-2 melanoma) was 1270 nM and the TGI (SK-MEL-2 melanoma) was 6190 nM. The GI50 (HCT-116 colon) was 600 nM, the TGI (HCT-116 colon) was 5990 nM and the GI50 (CAKI-1 renal) was 323 nM. The TGI (CAKI-1 renal) was 3640 nM, the GI50 (CCRF-CEM leukemia) was 1500 nM and the TGI (CCRF-CEM leukemia) was 12200 nM. For the same molecule, the GI50 (KM12 colon) was 1110 nM, the TGI (KM12 colon) was 6300 nM and the GI50 (RXF 393 renal) was 360 nM. It also gave a TGI (RXF 393 renal) of 2000 nM, a GI50 (ACHN renal) of 316 nM and a TGI (ACHN renal) of 15500 nM. The GI50 (786-0 renal) was 1600 nM, the TGI (786-0 renal) was 10300 nM and the GI50 (U251 CNS) was 1290 nM. It also gave a TGI (U251 CNS) of 8950 nM, a GI50 (SF-295 CNS) of 2850 nM and a TGI (SF-295 CNS) of 11100 nM. It also gave a GI50 (SNB-19 CNS) of 2480 nM, a TGI (SNB-19 CNS) of 32100 nM and a GI50 (SF-268 CNS) of 1760 nM. For the same molecule, the TGI (SF-268 CNS) was 19200 nM, the GI50 (IGROV1 ovarian) was 407 nM and the TGI (IGROV1 ovarian) was 11200 nM. The GI50 (OVCAR-4 ovarian) was 1690 nM, the TGI (OVCAR-4 ovarian) was 23500 nM and the GI50 (SK-MEL-28 melanoma) was 1810 nM. For the same molecule, the TGI (SK-MEL-28 melanoma) was 6860 nM, the GI50 (SK-MEL-5 melanoma) was 986 nM and the TGI (SK-MEL-5 melanoma) was 4530 nM. For the same molecule, the GI50 (BT-549 breast) was 1280 nM, the TGI (BT-549 breast) was 7000 nM and the GI50 (HCC-2998 colon) was 3040 nM. It also gave a TGI (HCC-2998 colon) of 12300 nM, a GI50 (LOX IMVI melanoma) of 2000 nM and a TGI (LOX IMVI melanoma) of 7800 nM. For the same molecule, the GI50 (MALME-3M melanoma) was 1740 nM, the TGI (MALME-3M melanoma) was 6980 nM and the GI50 (UO-31 renal) was 1010 nM. It also gave a TGI (UO-31 renal) of 5530 nM, a GI50 (EKVX NSCLC) of 215 nM and a TGI (EKVX NSCLC) of 3920 nM. The GI50 (NCI/ADR-RES ovarian) was 1860 nM, the TGI (NCI/ADR-RES ovarian) was 16600 nM and the GI50 (DU-145 prostate) was 1460 nM. For the same molecule, the TGI (DU-145 prostate) was 20200 nM, the GI50 (MDA-MB-435) was 1380 nM and the TGI (MDA-MB-435) was 5610 nM.
